Measured values from patent US20250332149A1, “PIPERIDINE COMPOUNDS AND PHARMACEUTICAL COMPOSITIONS” (Lumos Pharma, Inc., priority 2024, published 2025).

Experiment: Phase 1 study Part 1: plasma PK and relative bioavailability of LUM-201 tablets vs capsule
Type: in vivo, human
Settings: for % AUCex, Arithmetic Mean / % AUCex, Geometric Mean / Clast, Arithmetic Mean / Clast, Geometric Mean / DNAUC0-inf, Arithmetic Mean / DNAUC0-inf, Geometric Mean / DNAUC0-last, Arithmetic Mean / DNAUC0-last, Geometric Mean / DNCmax, Arithmetic Mean / DNCmax, Geometric Mean / tlag, Median / tlast, Median / λz, Arithmetic Mean / λz, Geometric Mean / DNAUC0-inf, GLS Mean / DNAUC0-last, GLS Mean / DNCmax, GLS Mean: oral, fasted; for DNAUC0-inf, GLS Mean / DNAUC0-last, GLS Mean / DNCmax, GLS Mean: ANOVA
Text: This study in healthy adult subjects was designed to establish the pharmacokinetic (PK) and pharmacodynamic (PD) profiles for the orally administered test product (coated mini-tablets in a capsule) and reference product (mini-tablet) to evaluate relative bioavailability in Part 1 and to evaluate the food effect on the bioavailability of test product (capsule only) in Part 2.
This was a single center, open-label, randomized, Phase 1 study in healthy adult subjects. This study consisted of 2 parts: Part 1 was a 4-sequence, 4-treatment, 4 Treatment Periods, crossover study to determine the relative bioavailability of current tablets to new capsule formulations of LUM-201; Part 2 was a 2-sequence, 2-treatment, 2 Treatment Periods, crossover study to evaluate the food effect on the bioavailability of the new capsule formulation of LUM-201. An individual subject was allowed to participate in only 1 part (Part 1 or Part 2) of the study. Forty subjects were planned and enrolled in this study. • Part 1: A total of 28 subjects were planned and enrolled in Part 1. Part 1 consisted of 4 sequences, each having 4 Treatment Periods enrolling 7 subjects (1:1:1:1 ratio). During Treatment Periods 1 through 4, each subject received 4 single oral doses of LUM-201 drug product in a randomized, crossover order. • Part 2: A total of 12 subjects were planned and enrolled in Part 2. Part 2 consisted of 2 sequences, each having 2 Treatment Periods enrolling 6 subjects (1:1 ratio). Each subject received a single oral dose of LUM-201 at each Treatment Period. During Treatment Periods 1 and 2, each subject received 2 single oral doses of LUM-201 in a randomized, crossover order. • On Day 1 of Treatment Period 1, subjects were administered the assigned treatment (A or B) as randomized, followed by a washout of at least 3 days between Treatment Periods 1 and 2. Subjects stayed in-house (not discharged) between the Treatment Periods. • Treatment A was dosed at 85.3 mg capsule formulation of LUM-201 (intact capsule consumed unopened) consumed while subject was in a fasted state with 240 mL of water. • Treatment B was dosed at 85.3 mg capsule formulation of LUM-201 (intact capsule consumed unopened) consumed 30 minutes after start of a high-fat meal with 240 mL of water. • Subjects were discharged from the study center on the morning of Day 3 of Treatment Period 2 after the scheduled study assessments had been completed.
• Treatment A (reference): five 18 mg oral tablets of LUM-201 were administered under fasted state with 240 mL of water. • Treatment B (test): a single 85.3 mg dose of oral capsule formulation of LUM-201 was administered as a whole capsule under fasted state with 240 mL of water. • Treatment C (test): a single 85.3 mg dose of oral capsule formulation of LUM-201 was administered by dosing capsule contents (dry) under fasted state with 240 mL of water. • Treatment D (test): a single 85.3 mg dose of oral capsule formulation of LUM-201 was mixed (capsule contents) with banana puree (2 teaspoons), followed by 240 mL of water and was ingested within 5 minutes under fasted state (Note: Banana Puree, single serve cup was used [118.3 mL]). […]

[1] = 85.3 mg capsule, Treatments B, C and D
[2] = Part 1, Treatment A (reference): five 18 mg tablets (90 mg)
[3] = Part 1, Treatment B (test): 85.3 mg whole capsule
[4] = Part 1, Treatment C (test): 85.3 mg capsule contents (dry)
[5] = Part 1, Treatment D (test): 85.3 mg capsule contents in banana puree

## CC(C)(N)C(=O)N[C@H](COCc1ccccc1)C(=O)N1CCC2(CC1)CN(S(C)(=O)=O)c1ccccc12 [LUM-201, N-[1(R)-[(1,2-dihydro-1-methanesulfonylspiro[3H-indole-3,4′-piperdin]-yl)carbonyl]-2-(phenylmethyloxy)ethyl]-2-amino-2-methylpropanamide methanesulfonate]
[1]
  bioequivalence of DNAUC0-last and AUC0-inf to the 90 mg tablet, fasted (Treatment A): bioequivalent
  bioequivalence of DNCmax to the 90 mg tablet dose, fasted (Treatment A): not bioequivalent
[2]
  % AUCex, Arithmetic Mean: 1.763%
  % AUCex, Geometric Mean: 1.652%
  Clast, Arithmetic Mean: 0.8783 ng/mL
  Clast, Geometric Mean: 0.8225 ng/mL
  DNAUC0-inf, Arithmetic Mean: 6.998 ng·h/mL/mg
  DNAUC0-inf, Geometric Mean: 6.247 ng·h/mL/mg
  DNAUC0-last, Arithmetic Mean: 6.885 ng·h/mL/mg
  DNAUC0-last, Geometric Mean: 6.137 ng·h/mL/mg
  DNCmax, Arithmetic Mean: 1.464 ng/mL/mg
  DNCmax, Geometric Mean: 1.267 ng/mL/mg
  tlag, Median: 0 h
  tlast, Median: 36.34 h
  λz, Arithmetic Mean: 0.0901 h⁻¹
  λz, Geometric Mean: 0.0886 h⁻¹
  DNAUC0-inf, GLS Mean: 6.25 ng·h/mL/mg
  DNAUC0-last, GLS Mean: 6.14 ng·h/mL/mg
  DNCmax, GLS Mean: 1.27 ng/mL/mg
[3]
  % AUCex, Arithmetic Mean: 1.748%
  % AUCex, Geometric Mean: 1.630%
  Clast, Arithmetic Mean: 0.7461 ng/mL
  Clast, Geometric Mean: 0.7189 ng/mL
  DNAUC0-inf, Arithmetic Mean: 6.638 ng·h/mL/mg
  DNAUC0-inf, Geometric Mean: 6.008 ng·h/mL/mg
  DNAUC0-last, Arithmetic Mean: 6.534 ng·h/mL/mg
  DNAUC0-last, Geometric Mean: 5.903 ng·h/mL/mg
  DNCmax, Arithmetic Mean: 1.353 ng/mL/mg
  DNCmax, Geometric Mean: 1.092 ng/mL/mg
  tlag, Median: 0.2494 h
  tlast, Median: 47.93 h
  λz, Arithmetic Mean: 0.0877 h⁻¹
  λz, Geometric Mean: 0.086 h⁻¹
  DNAUC0-inf, GLS Mean: 5.97 ng·h/mL/mg
  DNAUC0-last, GLS Mean: 5.86 ng·h/mL/mg
  DNCmax, GLS Mean: 1.09 ng/mL/mg
[4]
  % AUCex, Arithmetic Mean: 1.859%
  % AUCex, Geometric Mean: 1.673%
  Clast, Arithmetic Mean: 0.7612 ng/mL
  Clast, Geometric Mean: 0.7309 ng/mL
  DNAUC0-inf, Arithmetic Mean: 6.832 ng·h/mL/mg
  DNAUC0-inf, Geometric Mean: 6.259 ng·h/mL/mg
  DNAUC0-last, Arithmetic Mean: 6.721 ng·h/mL/mg
  DNAUC0-last, Geometric Mean: 6.142 ng·h/mL/mg
  DNCmax, Arithmetic Mean: 1.159 ng/mL/mg
  DNCmax, Geometric Mean: 1.014 ng/mL/mg
  tlag, Median: 0 h
  tlast, Median: 48.07 h
  λz, Arithmetic Mean: 0.0829 h⁻¹
  λz, Geometric Mean: 0.0818 h⁻¹
  DNAUC0-inf, GLS Mean: 6.21 ng·h/mL/mg
  DNAUC0-last, GLS Mean: 6.10 ng·h/mL/mg
  DNCmax, GLS Mean: 1.01 ng/mL/mg
[5]
  % AUCex, Arithmetic Mean: 1.932%
  % AUCex, Geometric Mean: 1.703%
  Clast, Arithmetic Mean: 0.8723 ng/mL
  Clast, Geometric Mean: 0.7962 ng/mL
  DNAUC0-inf, Arithmetic Mean: 7.377 ng·h/mL/mg
  DNAUC0-inf, Geometric Mean: 6.400 ng·h/mL/mg
  DNAUC0-last, Arithmetic Mean: 7.254 ng·h/mL/mg
